9 molecules from patent US5296494A, “Pyrrolidine compounds having thromboxane A2 receptor antagonistic activity and thromboxane A2 synthase inhibiting activity” (Adir et Compagnie, priority 1991, dated 1994) can be followed below.

For one assay, the target named is T1, guinea pig trachea (Cavia porcellus, UniProt A0A286Y4I8).
T1 construct: the trachea is rapidly removed and then cut into two-cartilage rings; from tissue; host or cells: guinea pig trachea, two-cartilage rings (isolated organ)
T1 sequence (A0A286Y4I8 1-347): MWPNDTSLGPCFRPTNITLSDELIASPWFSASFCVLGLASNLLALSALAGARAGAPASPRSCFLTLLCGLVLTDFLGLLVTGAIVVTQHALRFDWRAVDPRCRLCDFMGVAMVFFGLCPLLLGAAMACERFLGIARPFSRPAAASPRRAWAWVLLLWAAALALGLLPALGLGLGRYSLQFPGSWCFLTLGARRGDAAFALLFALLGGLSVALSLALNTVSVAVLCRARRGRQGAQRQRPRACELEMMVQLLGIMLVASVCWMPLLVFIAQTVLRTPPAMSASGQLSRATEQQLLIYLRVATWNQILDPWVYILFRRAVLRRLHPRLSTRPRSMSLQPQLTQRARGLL
As to the kind of experiment: Determination of the pA2 values on guinea pig trachea (U46619-induced contraction). It counts as cell-based. Particulars: isolated guinea pig trachea rings, 37° C., agonist U46619, antagonist contact 20 minutes. The protocol: Determination of the pA2 values on guinea pig trachea
Male albino guinea pigs weighing 400-500 grams were sacrificed by a blow to the back of the neck and by cervical elongation. The throat is opened and the trachea is rapidly removed and then cut into two-cartilage rings. These rings are mounted between two hooks in cells thermostated at 37° C. containing physiological fluid (composition in mM:NaCl 118; NaHCO3 25; glucose 10; KCl 4.7; CaCl2 1.25; MgSO4 1.19; KH2 PO4 1.14).
A 95% O2 /5% CO2 mixture is bubbled through the physiological solution. The lower hook constitutes the fixed point while the upper hook is connected to an isometric strength gage. The tissues are placed under a baseline tension of 3.5 grams. The test pharmacological substances are prepared immediately before use. The drugs are solubilized in water or in dimethyl sulfoxide.
After mounting, the preparations are left standing for 90 minutes, rinses being performed every 30 minutes. After readjustment of the baseline tension, a contraction produced by a single dose of agonist (U46619; 10^-5 M) is produced in order to make the following contractions consist. After washing and return to the baseline, a first effect/concentration curve is established by adding cumulative doses of U46619 (10^-9 M to 10^-5 M, with semi-log spacing between the doses). This first experiment enables the "control" 50% effective concentration (EC50) to be calculated.
This EC50 is routinely calculated in the following manner: the tension values are first converted to percentages relative to the maximum effect, these percentages then being plotted on a graph with the percentages as ordinates and the log (concentration) values as abscissae. A linear regression is then carried out on the points lying between 10% and 90% (which corresponds to the linear portion of the sigmoid curve). The concentration corresponding to half the maximum effect (50%) may be readily calculated using the parameters of the linear plot.
After washing and return to the baseline, the organ is brought into contact with the antagonist ([…]) for 20 minutes. A second effect/concentration curve is then established in the presence of the antagonist, and the "treated" EC50 can then be calculated. All the elements enabling the pA2 (competitive antagonism) or pD2 (non-competitive antagonism) to be calculated are thereby obtained.
The pA2 (which represents the negative logarithm of the antagonist concentration in the presence of which twice as much agonist is required in order to obtain the same effect) is determined by plotting on a graph the values of log ((L/1)-1) with respect to log (antagonist concentration), where L=effect in presence of antagonist and 1=control effect.

A further assay has as its target T2, thromboxane synthase (Oryctolagus cuniculus, UniProt G1TAZ9).
T2 construct: from tissue; host or cells: rabbit whole blood (clotting; by own knowledge the enzyme is chiefly that of platelets)
T2 sequence (G1TAZ9 1-530): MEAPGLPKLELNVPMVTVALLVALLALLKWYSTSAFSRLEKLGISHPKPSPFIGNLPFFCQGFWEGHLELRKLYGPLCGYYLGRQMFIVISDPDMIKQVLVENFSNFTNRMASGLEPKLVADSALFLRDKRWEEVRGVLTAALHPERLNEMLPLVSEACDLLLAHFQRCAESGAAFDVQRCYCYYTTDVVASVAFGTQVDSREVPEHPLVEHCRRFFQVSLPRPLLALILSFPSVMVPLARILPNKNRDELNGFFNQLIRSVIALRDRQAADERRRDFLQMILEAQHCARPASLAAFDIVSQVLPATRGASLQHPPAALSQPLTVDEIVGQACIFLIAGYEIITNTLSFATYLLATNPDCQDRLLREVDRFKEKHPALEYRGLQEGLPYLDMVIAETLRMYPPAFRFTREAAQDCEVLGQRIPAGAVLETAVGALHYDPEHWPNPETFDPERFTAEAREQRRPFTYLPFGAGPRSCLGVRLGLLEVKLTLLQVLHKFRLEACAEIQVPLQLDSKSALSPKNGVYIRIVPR
As to the kind of experiment: Anti-thromboxane synthase activity (TXB2 levels in serum of rabbit blood, radio immunoassay). Particulars: 37° C., one hour, serum TXB2 by radio immunoassay, read-out: IC50, inhibition of TXB2 level. It counts as cell-based. The protocol:
Anti-thromboxane synthase activity
Albino New Zealand rabbits weighing approximately 2 kg are used. These rabbits are anesthetized with pentobarbital (30 mg/kg i.v.). Blood is collected via carotid catheter in dry glass tubes, in the proportion of 1 ml per tube, in the presence or absence of different concentrations of inhibitor. The inhibitors are diluted in physiological fluid in order to avoid possible hemolysis.
The tubes are placed in a water bath at 37° C. for one hour. After coagulation, the tubes are cooled to 4° C. and centrifuged at 2000 g for 20 minutes in order to separate the serum from the clot. The serum may be frozen at -20° C. for 2 weeks for a subsequent assay.
The levels of TXB2, the stable metabolite of TXA2, in the serum are determined by radio immunoassay.
The levels obtained in the presence of the different doses of inhibitor are converted to a percentage inhibition relative to the baseline level of TXB2, in order to calculate the IC50 of the inhibitor. The latter is obtained by non-linear regression using the following equation (Michaelis L, Menten ML, Die Kinetik der Invertinwirkung, Biochem. Zeitschrifft, 1913, 49, 333-369):
I=(Imax * C^n) / (IC^n +C^n)
C=inhibitor concentration

Assay [1] relates to platelet aggregation response induced by U46619 (TXA2 receptor agonist). As to the kind of experiment: Platelet aggregation: inhibition of U46619-induced aggregation of rabbit platelet-rich plasma. It counts as cell-based. As to conditions: Oryctolagus cuniculus, rabbit PRP, 37° C., antagonist 3 min before U46619 (1.2 μM), read-out: IC50, concentration inducing 50% inhibition of the aggregation response induced by U46619. The protocol: Rabbits (2-3 kg) are anesthetized with pentobarbital sodium (30 mg/kg i.v.). After cannulation of the left carotid artery, blood is withdrawn onto sodium citrate (0.109M) (1 vol. of citrate per 9 vol. of blood).
Platelet-rich plasma (PRP) is obtained by centrifugation (20° C.) at 250 g for 20 minutes, and platelet- poor plasma (PPP) by centrifugation at 1000 g (10 min). The number of platelets (PL) in the PRP is adjusted to 300-350,000 PL/mm^3 by dilution with autologous PPP. The PRP is stored at the temperature of the room until the time of the test, and is used within 4 hours following withdrawal.
Platelet aggregation is carried out at 37° C. in siliconed glass tubes using an aggregometer. The PRP and PL are stirred at 1000 rpm (revolutions per minute). In order to study the activity of thromboxane antagonists, the PRP is incubated for 1 min at 37° C., and the antagonist is then added for a period of 3 min before addition of the agonist U46619 (1.2 μM). The final volume in the cell is then 250 μl. The intensity of platelet aggregation is established by taking the maximum amplitude of the aggregation plots and is expressed as a percentage light transmission (% T). The activity of the antagonists is expressed as IC50, that is to say the concentration of the substance which induces a 50% inhibition of the aggregation response induced by U46619.

For assay [2], the system named is thromboxane receptor (increase in tracheal pressure caused by U46619). Kind of assay: IC50 on tracheal pressure in guinea pigs (U46619-induced bronchoconstriction). Particulars: anesthetized guinea pigs, antagonist injected 5 minutes before U46619 (2 μg/kg i.v.); for ED50: Cavia porcellus, iv, 5 min, read-out: IC50, dose of antagonist that inhibits by 50% the increase in tracheal pressure caused by U46619. It counts as in vivo, guinea pig. The source says: IC50 on tracheal pressure in guinea pigs
Male albino guinea pigs (350-400 g) subjected to an 18-hour water diet are anesthetized with ethyl carbamate (1.25 g/kg i.p.). A catheter is introduced into the carotid artery in order to measure the arterial blood pressure by means of a pressure cell. A second catheter is introduced into the jugular vein and is used to inject the pharmacological substances. The trachea is cannulated and the guinea pig is placed in assisted respiration by means of a respirator. The animal's temperature is maintained at 37° C. using a thermostated blanket. A needle pushed into the tracheal cannula is connected to a pressure cell and enables the tracheal pressure to be recorded.
The guinea pigs are pretreated with d-tubocurarine (1 mg/kg i.v.) and with indomethacin (10 mg/kg i.v.). Injected at a dose of 2 μg/kg i.v., U46619 produces a bronchoconstriction which leads to an increase in tracheal pressure and induces an increase in arterial blood pressure. The responses to U46619 are reversible and reproducible if the injections are carried out every 10 minutes.
The thromboxane receptor antagonists are injected 5 minutes before the injections of U46619. The dose of antagonist that inhibits by 50% the increase in tracheal pressure caused by U46619 is determined (IC50).

Structures can show the parent of a compound that is named as a salt.

Regarding `COc1cccc([C@@H]2[C@H](C/C=C\CCC(=O)O)CCN2S(=O)(=O)c2ccc(F)cc2)c1` (relative stereo) [Example 1, (4Z)-6-[(2α,3α)-1-(4-Fluorophenylsulfonyl)-2-(3-methoxyphenyl)-3-pyrrolidinyl]-4-hexenoic acid sodium salt], the Kb (usually the affinity of an antagonist, worked out from how it opposes an agonist) at guinea pig trachea was 0.0631 µM.

`O=C(O)CC/C=C\C[C@@H]1CCN(S(=O)(=O)c2ccc(F)cc2)[C@@H]1c1cccnc1` (relative stereo) [Example 2, (4Z)-6-[(2α,3α)-1-(4-Fluorophenylsulfonyl)-2-(3-pyridyl)-3-pyrrolidinyl]-4-hexenoic acid sodium salt]: the IC50 on thromboxane synthase was found to be 200 µM.

In the case of `O=C(O)CC/C=C\C[C@@H]1CCN(S(=O)(=O)c2ccc(F)cc2)[C@@H]1c1cccc(O)c1` (relative stereo) [Example 14, (4Z)-6-[(2α,3α)-1-(4-Fluorophenylsulfonyl)-2-(3-hydroxyphenyl)-3-pyrrolidinyl]-4-hexenoic acid sodium salt], at guinea pig trachea, the antagonist dissociation constant (Kb) was 0.01 µM. The IC50 in assay [1] was found to be 20 µM. Moreover, the ED50 in assay [2] is 0.07 mg/kg. Taken in the same sequence, the figures for `O=C(O)CCC/C=C\C[C@@H]1CCN(S(=O)(=O)c2ccc(F)cc2)[C@@H]1c1cccc(O)c1` (relative stereo) [Example 15, (5Z)-7-[(2α,3α)-1-(4-Fluorophenylsulfonyl)-2-(3-hydroxyphenyl)-3-pyrrolidinyl]-5-heptenoic acid sodium salt] were 0.0398 µM, 20 µM and 0.16 mg/kg. On to `O=C(O)CCCCC[C@@H]1CCN(S(=O)(=O)c2ccc(F)cc2)[C@@H]1c1cccnc1` (relative stereo) [Example 20, 6-[(2α,3α)-1-(4-Fluorophenylsulfonyl)-2-(3-pyridyl)-3-pyrrolidinyl) hexanoic acid sodium salt], for which the IC50 on thromboxane synthase worked out at 60 µM.

For the molecule `O=C(O)CC/C=C\C[C@@H]1CCN(Cc2cccnc2)[C@@H]1c1ccccc1` (relative stereo) [Example 21, (4Z)-6-{(2α,3α)-1-[(3-Pyridyl)methyl]-2-phenyl-3-pyrrolidinyl}-4-hexenoic acid sodium salt], at guinea pig trachea, the Kb was 0.00182 µM. Besides, the ED50 in assay [2] amounted to 0.17 mg/kg. The IC50 at thromboxane synthase is 8.5 µM. Take `O=C(O)CCCCC[C@@H]1CCN(Cc2cccnc2)[C@@H]1c1ccccc1` (relative stereo) [Example 22, 6-{(2α,3α)-1-[(3-Pyridyl)methyl]-2-phenyl-3-pyrrolidinyl}hexanoic acid sodium salt]: at guinea pig trachea, the antagonist equilibrium constant (Kb) was 7.08 µM. Take `O=C(O)CC/C=C\C[C@@H]1CCN(Cc2cccnc2)[C@@H]1c1cccc(O)c1` (relative stereo) [Example 26, (4Z)-6-{(2α,3α)-1-[(3-Pyridyl)methyl]-2-(3-hydroxyphenyl) -3-pyrrolidinyl}-4-hexenoic acid sodium salt]: the Kb on guinea pig trachea was 0.0309 µM. Further, the ED50 in assay [2] is 0.03 mg/kg. As to `O=C([O-])CC/C=C\C[C@@H]1CCN(S(=O)(=O)c2ccc(F)cc2)[C@H]1c1ccccc1.[Na+]` [Example 4, (4Z)-6-[(2α,3α)-1-(4-Fluorophenylsulfonyl)-2-phenyl-3-pyrrolidinyl]-4-hexenoic acid sodium salt], the “IC50, dose of antagonist that inhibits by 50% the increase in tracheal pressure caused by U46619” value in assay [2] is recorded as 0.7 mg/kg.
